24 molecules from PMC11280390, “Synthesis of Nitrostyrylthiazolidine-2,4-dione Derivatives Displaying Antileishmanial Potential” (Pharmaceuticals, 2024) can be followed below.

Like-named read-outs stand apart in the source and are kept apart here.

In series [1] the test system is Leishmania infantum promastigotes. Briefly: In vitro antileishmanial activity on L. infantum promastigotes (MTT, 72 h). The series is classed as cell-based. The following applies: read-out: Anti-L. infantum Promastigote Activity EC50. The procedure:
Luciferase-expressing Leishmania infantum was kindly provided by Professor Thierry Lang of the Institut Pasteur. L. infantum promastigotes were routinely grown at 27 °C in Schneider’s Drosophila Medium (Dominique […] SAS, Bernolsheim, France) supplemented with 10% fetal calf serum, 2% human urine, sodium pyruvate 0.04 mM, hemin 0.1 µg/mL, HEPES 5 mM, streptomycin 100 µg/mL, penicillin 100 U/mL, L-glutamine 2 mM (culture medium). The in vitro evaluation of the antileishmanial activity of the tested compound on L. infantum promastigotes forms was assessed according to the Mosmann protocol with slight modifications. […] Appropriate controls treated with DMSO, Miltefosine, Amphotericin B and Fexinidazole sulfone (reference drugs purchased from Sigma-Aldrich, Saint-Louis, MO, USA) were added to each set of experiments. The plates were incubated at 27 °C for 72 h, Then, each plate-well was microscope-analyzed to detect any precipitate formation. Afterward, 20 µL of MTT (3-(4,5-dimethylthiazol-2-yl)-2,5-diphenyltetrazolium bromide) (Sigma-Aldrich, Saint-Louis, MI, USA) solution (5 mg/mL in PBS) were added to each well and incubated at 27 °C for 4 h. The reaction was then stopped by the addition of 100 µL of 10% sodium dodecyl sulfate—50% isopropanol. Plates were shaken vigorously at 400 rpm for 10 min. […] EC50 values represent the mean value calculated from at least three separate experiments.

Series [2] in a line: In vitro cytotoxicity on the human hepatic HepG2 cell line (MTT, 72 h). The settings on record: human. The procedure:
(§1) HepG2 cell line (hepatocarcinoma cell line purchased from ATCC, ref HB-8065) was maintained at 37 °C, 5% CO2 with 90% humidity in MEM supplemented with 10% fetal bovine serum, 1% L-glutamine (200 mM) and penicillin (100 U/mL)/streptomycin ([…]) (complete MEM medium). The tested molecules’ cytotoxicity was assessed according to the method of Mosmann with slight modifications. Briefly, 5 × 10^3 cells in 100 μL of complete medium were inoculated into each well of 96-well plates and incubated at 37 °C in a humidified 5% CO2. After 24 h incubation, 100 μL of medium with various product concentrations dissolved in DMSO (final concentration less than 0.5% v/v) were added and the plates were incubated for 72 h at 37 °C. Triplicate assays were performed for each sample. Each plate well was then microscope-examined to detect possible precipitate formation before the medium was aspirated from the wells. Then, 100 μL of MTT (3-(4,5-dimethyl-2-thiazolyl)-2,5-diphenyl-2H-tetrazolium bromide) solution (0.5 mg/mL in medium without FCS) were then added to each well. Cells were incubated for 2 h at 37 °C, following which the MTT solution was removed and DMSO (100 μL) was added to dissolve the resulting blue formazan crystals. Plates were shaken vigorously (700 rpm) for 10 min. The absorbance was measured at 570 nm with 630 nm as reference wavelength using a TECAN Infinite F-200 spectrophotometer (Tecan Trading AG, Männedorf, Switzerland). DMSO was used as blank and doxorubicin (purchased from Sigma Aldrich, Saint Louis, MI, USA) as positive control. Cell viability was calculated as a percentage of control (cells incubated without compound). […] CC50 values represent the mean value calculated from three separate experiments.

The subject of another series is HepG2 cell line. As to the kind of experiment: In vitro cytotoxicity on the human hepatic HepG2 cell line (MTT, 72 h). The settings on record: for Selectivity INDEX (SI = CC50/EC50): HepG2 CC50 / L. infantum promastigote EC50; for CC50: read-out: HepG2 Cytotoxicity CC50, HepG2, 72 h, MTT. Here is the method:
as §1

[3] abbreviates: Leishmania infantum, L. infantum promastigotes, MTT.
Setting [4] is: HepG2 cells (hepatocarcinoma cell line, ATCC HB-8065), HepG2 Cytotoxicity CC50, HepG2, 72 h, MTT.

The EC50 is the concentration needed to bring the measured effect to its halfway point. What is called CC50 is the concentration at which the toxic effect on the cells reaches its halfway point. Usually melting point stands for the temperature, or range, at which the solid turns liquid. With `O=C(O)CN1C(=O)S/C(=C\c2cccc([N+](=O)[O-])c2)C1=O` [Compound 29, (Z)-2-(5-(3-Nitrobenzylidene)thiazolidin-2,4-dion-3-yl)acetic Acid], the melting point lay in the range of 191 to 193 °C. Also, in series [1] (setting [3]), the EC50 was over 50 µM. Besides, in series [2] (setting [4]), the cytotoxic concentration (CC50) at 72 h was over 250 µM.

`O=C1NC(=O)/C(=C/c2ccc([N+](=O)[O-])cc2)S1` [Compound 5]: the half-maximal effective concentration (EC50) in series [1] (L. infantum promastigotes, MTT) stood at 14.6 ± 2.9 µM. Moreover, half-maximal cytotoxicity in series [2] (setting [4]) (CC50 at 72 h) was put at 137.1 ± 1.22 µM. In addition, the “Selectivity INDEX (SI = CC50/EC50)” value in the series on HepG2 cell line is on record as 9.4.

On to `CCOC(=O)CN1C(=O)S/C(=C\c2ccc([N+](=O)[O-])cc2)C1=O` [Compound 12d, Ethyl ((Z)-5-(4-nitrobenzylidene)thiazolidine-2,4-dion-3-yl)acetate], for which the melting point was in the range of 136 to 138 °C. For the same molecule, the EC50 in series [1] (setting [3]) was 11.6 ± 2.37 µM. This molecule yielded a CC50 at 72 h in series [2] (setting [4]) of 101 to 125 µM. Moreover, in the series on HepG2 cell line, the “Selectivity INDEX (SI = CC50/EC50)” value is on record as over 10.8 and the CC50 is over 125 µM.

In turn, `O=C(CN1C(=O)S/C(=C\c2ccccc2[N+](=O)[O-])C1=O)Nc1ccccc1Cl` [Compound 28b, (Z)-N-(2-Chlorophenyl)-2-(5-(2-nitrobenzylidene)thiazolidine-2,4-dion-3-yl) acetamide] displayed a melting point of 174 to 175 °C. In series [1] (setting [3]), the EC50 came to 16.1 ± 4.32 µM. The CC50 at 72 h in series [2] (setting [4]) came out at 23 ± 3.2 µM. For the same molecule, the “Selectivity INDEX (SI = CC50/EC50)” value in the series with HepG2 cell line is 1.4.

In turn, `COc1cc(/C=C2\SC(=O)N(CC(=O)Nc3ccc(Cl)cc3)C2=O)cc(OC)c1OC` [Compound 27e, (Z)-N-(4-Chlorophenyl)-2-(5-(3,4,5-trimethoxybenzylidene)thiazolidine-2,4-dion-3-yl)acetamide] had a melting point of 218 to 219 °C. In series [1] (setting [3]), the EC50 is 5 ± 1.98 µM. The half-maximal cytotoxic concentration (CC50) at 72 h in series [2] (setting [4]) came to 19.4 ± 2.05 µM. The “Selectivity INDEX (SI = CC50/EC50)” value with HepG2 cell line amounted to 3.9.

Consider `O=C(CN1C(=O)S/C(=C\c2ccc([N+](=O)[O-])cc2)C1=O)Nc1ccc(Cl)cc1` [Compound 27d, (Z)-N-(4-Chlorophenyl)-2-(5-(4-nitrobenzylidene)thiazolidine-2,4-dion-3-yl) acetamide], for which the melting point lay in the range of 252 to 254 °C. In addition, the half-maximal effective concentration (EC50) in series [1] (setting [3]) amounted to 17.3 ± 4.17 µM. For the same molecule, the cytotoxic concentration (CC50) at 72 h in series [2] (setting [4]) was over 12.5 µM. Further, in the series with HepG2 cell line, the “Selectivity INDEX (SI = CC50/EC50)” value was over 0.7.

The molecule `O=C(CN1C(=O)S/C(=C\c2ccc([N+](=O)[O-])cc2)C1=O)Nc1ccc([N+](=O)[O-])cc1` [Compound 26d, (Z)-2-(5-(4-Nitrobenzylidene)thiazolidine-2,4-dion-3-yl)-N-(4-nitroyphenyl) acetamide] gave a melting point of 284 to 285 °C. Moreover, the EC50 in series [1] (Leishmania infantum) came out at 14.1 ± 2.8 µM. In addition, in series [2], the CC50 at 72 h is over 25 µM. Also, the “Selectivity INDEX (SI = CC50/EC50)” value in the series on HepG2 cell line is listed as over 1.8.

Regarding `O=C(CN1C(=O)S/C(=C\c2ccccc2[N+](=O)[O-])C1=O)c1ccccc1` [Compound 16b, (Z)-5-(2-Nitrobenzylidene)-3-(2-oxo-2-phenylethyl)thiazolidine-2,4-dione], the melting point was 156 to 158 °C. Moreover, in series [1] (setting [3]), the EC50 turned out to be 5.57 ± 1.28 µM. The same molecule had a CC50 at 72 h in series [2] (setting [4]) of 11 ± 2.28 µM. In addition, the “Selectivity INDEX (SI = CC50/EC50)” value in the series on HepG2 cell line is listed as 2.0.

With `O=C(CN1C(=O)S/C(=C\c2cccc([N+](=O)[O-])c2)C1=O)Nc1ccc([N+](=O)[O-])cc1` [Compound 26c, (Z)-2-(5-(3-Nitrobenzylidene)thiazolidine-2,4-dion-3-yl)-N-(4-nitroyphenyl) acetamide], the melting point lay in the range of 264 to 266 °C. Moreover, in series [1] (Leishmania infantum), the EC50 stood at 7.2 ± 1.48 µM. Besides, in series [2], the CC50 at 72 h is over 25 µM. The “Selectivity INDEX (SI = CC50/EC50)” value in the series with HepG2 cell line is recorded as over 3.5.

Consider `O=C(CN1C(=O)S/C(=C\c2ccccc2[N+](=O)[O-])C1=O)Nc1ccc([N+](=O)[O-])cc1` [Compound 26b, (Z)-2-(5-(2-Nitrobenzylidene)thiazolidine-2,4-dion-3-yl)-N-(4-nitroyphenyl) acetamide], for which the melting point was 213 to 215 °C. Moreover, the EC50 in series [1] (Leishmania infantum) was 14.6 ± 2.91 µM. Also, the half-maximal cytotoxic concentration (CC50) at 72 h in series [2] was 30.1 ± 3.94 µM. Moreover, the “Selectivity INDEX (SI = CC50/EC50)” value in the series on HepG2 cell line is reported as 2.1.

Take `Cc1ccc(NC(=O)CN2C(=O)S/C(=C\c3ccccc3[N+](=O)[O-])C2=O)cc1` [Compound 24b, (Z)-N-(4-Methylphenyl)-2-(5-(2-nitrobenzylidene)thiazolidine-2,4-dion-3-yl) acetamide]: the melting point was in the range of 181 to 183 °C. For the same molecule, the EC50 in series [1] (setting [3]) was determined as 24.8 ± 6.68 µM. Besides, in series [2] (setting [4]), the CC50 at 72 h is 30.9 ± 3.97 µM. Moreover, in the series with HepG2 cell line, the “Selectivity INDEX (SI = CC50/EC50)” value was found to be 1.2.

The molecule `O=C(CN1C(=O)S/C(=C\c2cccc([N+](=O)[O-])c2)C1=O)c1ccccc1` [Compound 16c, (Z)-5-(3-Nitrobenzylidene)-3-(2-oxo-2-phenylethyl)thiazolidine-2,4-dione] yielded a melting point of 160 to 162 °C. Besides, the EC50 in series [1] (setting [3]) amounted to 3.22 ± 0.94 µM. This molecule returned a CC50 at 72 h in series [2] (setting [4]) of over 12.5 µM. Moreover, the “Selectivity INDEX (SI = CC50/EC50)” value in the series on HepG2 cell line was over 3.9.

Take `O=C1NC(=O)/C(=C/c2cccc([N+](=O)[O-])c2)S1` [Compound 4]: in series [1] (setting [3]), the EC50 was found to be 28 ± 7.15 µM. For the same molecule, the CC50 at 72 h in series [2] (setting [4]) stood at 190 ± 18.6 µM. In addition, in the series on HepG2 cell line, the “Selectivity INDEX (SI = CC50/EC50)” value was determined as 6.8.

As for `CCOC(=O)CN1C(=O)S/C(=C\c2cccc([N+](=O)[O-])c2)C1=O` [Compound 12c, Ethyl ((Z)-5-(3-nitrobenzylidene)thiazolidine-2,4-dion-3-yl)acetate], the EC50 in series [1] (setting [3]) came out at 5.51 ± 1.29 µM. The CC50 at 72 h in series [2] (setting [4]) fell in the range of 101 to 125 µM. For the same molecule, in the series on HepG2 cell line, the “Selectivity INDEX (SI = CC50/EC50)” value is over 22.7 and the CC50 is over 125 µM.

Take `CCOC(=O)CN1C(=O)S/C(=C\c2ccccc2)C1=O` [Compound 12a]: the EC50 in series [1] (setting [3]) stood at 20.6 ± 5.86 µM. The CC50 at 72 h in series [2] (setting [4]) is 194 ± 8.92 µM. In the series on HepG2 cell line, the “Selectivity INDEX (SI = CC50/EC50)” value was 9.4.

Take `CC(=O)CN1C(=O)S/C(=C\c2cccc([N+](=O)[O-])c2)C1=O` [Compound 13c, (Z)-5-(3-Nitrobenzylidene)-3-(2-oxopropyl)thiazolidine-2,4-dione]: the melting point lay within 188 to 190 °C.

Regarding `CC(=O)CN1C(=O)S/C(=C\c2ccccc2)C1=O` [Compound 13a, (Z)-5-Benzylidene-3-(2-oxopropyl)thiazolidine-2,4-dione], the melting point was in the range of 139 to 140 °C.

As for `O=C(CN1C(=O)S/C(=C\c2ccccc2)C1=O)Nc1ccc([N+](=O)[O-])cc1` [Compound 26a, (Z)-2-(5-Benzylidenethiazolidine-2,4-dion-3-yl)-N-(4-nitrophenyl)acetamide], the melting point lay in the range of 270 to 272 °C.

As to `NC(=O)CN1C(=O)S/C(=C\c2ccc([N+](=O)[O-])cc2)C1=O` [Compound 15d, (Z)-2-(5-(4-Nitrobenzylidene)thiazolidine-2,4-dion-3-yl)acetamide], the melting point fell in the range of 281 to 283 °C.

For `COc1cc(/C=C2\SC(=O)N(CC(=O)Nc3ccc(C)cc3)C2=O)cc(OC)c1OC` [Compound 24e, (Z)-N-(4-Methylphenyl)-2-(5-(3,4,5-trimethoxybenzylidene)thiazolidine-2,4-dion-3-yl)acetamide], the melting point lay in the range of 196 to 198 °C.

For `COc1cc(/C=C2\SC(=O)NC2=O)cc(OC)c1OC` [Compound 6], the melting point was 185 to 187 °C.

Consider `O=C(CN1C(=O)S/C(=C\c2ccccc2)C1=O)c1ccccc1` [Compound 16a], for which the melting point fell in the range of 182 to 183 °C.

For `COc1ccc(NC(=O)CN2C(=O)S/C(=C\c3cc(OC)c(OC)c(OC)c3)C2=O)cc1` [Compound 25e, (Z)-N-(4-Methoxyphenyl)-2-(5-(3,4,5-trimethoxybenzylidene)thiazolidine-2,4-dion-3-yl)acetamide], the melting point was in the range of 215 to 216 °C.

`O=C(CN1C(=O)S/C(=C\c2ccc([N+](=O)[O-])cc2)C1=O)Nc1ccccc1` [Compound 23d, (Z)-2-(5-(4-Nitrobenzylidene)thiazolidine-2,4-dion-3-yl)-N-phenylacetamide] displayed a melting point of 259 to 261 °C.
